{"source": "paper PMC12011184", "about": "“Galanin Reduces Myocardial Ischemia/Reperfusion Injury in Rats with Streptozotocin Diabetes” (Acta Naturae, 2025)", "experiment": "Solubility of peptide G in water", "assay_type": "physicochemical", "protocol": "Peptide G was obtained by convergent solid-phase synthesis through condensation of peptide segments, which, in turn, were obtained either on a polymer surface or in solution. Peptide G was purified by preparative HPLC to 98% purity on a Knauer chromatograph (Germany) using a Kromasil 100-10 ODS column (Sweden) (30 × 250 mm). Analytical HPLC was performed on a Kromasil 100-5 C18 column (4.6 × 250 mm) with a 5-μm sorbent particle size. The following eluents were used: 0.1% TFA as buffer A and 80% acetonitrile in buffer A as buffer B. The elution was carried out in a linear buffer B gradient ranging from 20 to 80% for 30 min at a rate of 1 ml/min. Detection was performed at λ = 220 nm (Supplementary materials; Fig. S1). The peptide structure was confirmed by MALDI-TOF/TOF mass spectrometry on an UltrafleXtreme Bruker Daltonics GmbH mass spectrometer (Germany) equipped with a UV laser (Nd) (Supplementary materials, Fig. S2).", "data": [{"smiles": "CC[C@H](C)[C@H](NC(=O)[C@H](C)NC(=O)[C@H](Cc1c[nH]cn1)NC(=O)[C@@H]1CCCN1C(=O)CNC(=O)[C@H](CC(C)C)NC(=O)[C@H](CC(C)C)NC(=O)[C@H](Cc1ccc(O)cc1)NC(=O)CNC(=O)[C@H](C)NC(=O)[C@H](CO)NC(=O)[C@H](CC(N)=O)NC(=O)[C@H](CC(C)C)NC(=O)[C@@H](NC(=O)[C@H](Cc1c[nH]c2ccccc12)NC(=O)CN)[C@@H](C)O)C(=O)N[C@@H](CC(=O)O)C(=O)N[C@@H](CC(N)=O)C(=O)N[C@@H](Cc1c[nH]cn1)C(=O)N[C@@H](CCCNC(=N)N)C(=O)N[C@@H](CO)C(=O)N[C@@H](Cc1ccccc1)C(=O)N[C@@H](CO)C(=O)N[C@@H](CC(=O)O)C(=O)N[C@@H](CCCCN)C(=O)N[C@@H](Cc1c[nH]cn1)C(=O)NCC(=O)N[C@@H](CC(C)C)C(=O)N[C@H](C(N)=O)[C@@H](C)O", "note": "[G, galanin]", "values": [{"measurement": "solubility", "result": "> 40", "unit": "mg/mL"}]}]}
